In assay [1] the test system is autophagy associated signal pathway proteins in DCIS spheroids. Nature of the assay: Cell signaling pathway mapping by reverse phase protein microarray (RPMA) of spheroids pre and post chloroquine. It counts as cell-based, human. Particulars: for autophagy associated signal pathway proteins (Atg5, AKT, ERK, mTOR, IRS-1, p38 etc.) by RPMA: spheroids pre and post chloroquine phosphate 50 μM for 4 days, n=3. As for the experimental part:
(§1) Pharmacological inhibition of autophagy. […] CO-containing medium was replaced three times per week for a period of 6 months.
(§2) Statistics. The Student T-test, two tailed with Welch's correction, was used to calculate the p-value, and to determine the statistical difference of epithelial outgrowth area before and after CQ treatment. P values <0.05 were considered significant. Standard deviation (SO) or standard error of the mean (SEM) was calculated for group comparisons. Wilcoxon rank sum was used to determine the differences between CQ treated and untreated groups for the reverse phase protein arrays. A p=0.1 was considered different for small sample sizes.

In assay [2] the test system is DCIS organoid cell cultures. Nature of the assay: Histomorphology (H&E of FFPE sections) of chloroquine treated DCIS organoids. As to conditions: for histology of intraductal epithelial cells / remaining adherent cells: chloroquine phosphate 50 μM, FIG. 14D. It counts as cell-based, human. The method, then: as §1
Immunohistochemistry. Formalin fixed murine tissue or DCIS organoids were processed and paraffin embedded by commercial laboratories (AML Laboratories, Inc, Rosedale, Md. or Bi-Biomics, Nampa, Id.). Formalin fixed paraffin embedded (FFPE) tissue sections (5 μm or 1 μm thickness) mounted on positively charged glass slides were baked at 56° C. for 20 min., deparaffinized in xylene and rehydrated in a series of graded alcohols (100%, 95%, and 70%) with a final rinse in wash buffer (Dako, Carpinteria, Calif., USA). Antigen retrieval, when necessary, was performed with proteinase K or heat induced epitope retrieval. Immunostaining was performed on a Dako Autostainer with an Envision+HRP staining kit (Dako) per manufacturer's instructions. Stained tissue sections were counterstained with Hematoxylin (Dako), rinsed in distilled water and developed in Scott's Tap Water Substitute solution. Cover slips were applied using aqueous mounting medium (Faramount; Dako). Images were captured with an Olympus BX51 microscope using 4×, 10×, 20×, or 100× objectives.

The next assay deals with human DCIS spheroids. As to conditions: for spheroid and 3-D structure formation (in words): DCIS organoid cultures, untreated up to 113 spheroids per duct organoid. As for the experimental part: Tissue collection. […] Gross tissue pathology at the time of procurement was assessed by a board certified pathologist. Tissue containing DCIS lesions was excised for further macrodissection and rinsed in sterile phosphate buffered saline to remove sentinel lymph node dye. Using sterile technique, ductal tissue was dissected from surrounding breast adipose/fibrous tissue. The ductal tissue was rinsed in serum free DMEM/F 12 medium (Invitrogen, Carlsbad, Calif., USA) supplemented with human recombinant EGF (10 ng/mL; Cell Signaling Technology, Danvers, Mass., USA or Millipore, Billerica, Mass., USA), insulin (10 μg/mL; Roche, Indianapolis, Ind., USA), streptomycin sulfate (100 μg/mL; Sigma, St. Louis, Mo., USA) and gentamicin sulfate (20 μg/mL; Sigma) prior to distribution in culture flasks (MidSci, St. Louis, Mo., USA). Ductal tissue was allowed to attach to the culture surface and observed daily for cellular outgrowths. Non-adherent organoids were removed from the culture flask.
(§3) Organoid ex vivo culture. Dissected breast ductal tissue was grown in 115 cm^2 TPP reclosable flasks (MidSci) or 10 cm^2 culture tubes (MidSci) in serum free DMEM/F12 medium supplemented with human recombinant EGF (10 ng/mL), insulin (10 μg/mL), streptomycin sulfate (100 μg/mL) and gentamicin sulfate (20 μg/mL), with or without 0.36% (v/v) murine Engelbreth-Holm-Swarm (EHS) derived, growth factor reduced, basement membrane extract (Trevigen, Gaithersburg, Md., USA) at 37° C. in a humidified 5.0% CO2 atmosphere. Medium was replaced three times per week. Cultures were maintained continuously for up to one year. Periodically, organoids were removed, under microscopic visualization, for propagation into new culture flasks or phenotypic and molecular analysis.
as §1, §2

Assay [3] concerns DCIS malignant precursor cells. In words: Ex vivo invasion of autologous breast stroma in organoid culture. It counts as cell-based, human. As to conditions: chloroquine phosphate treated organ culture. As for the experimental part: as §3, §1
The test system of assay [4] is DCIS organoid culture spheroids. In words: Autophagosome lysosome imaging with LysoTracker Red. As to conditions: chloroquine phosphate 50 μM for 2 weeks. It counts as cell-based, human.
The mark [5] stands for this setting: listed as chloroquine phosphate.

The source of these data is US20120077843A1, “MALIGNANT PRECURSOR CELLS FROM DUCTAL CARCINOMA IN SITU LESIONS” (George Mason Intellectual Properties, Inc., priority 2009, published 2012).

Where two headings read alike, the source gives them in different places.

For `CCN(CC)CCCC(C)Nc1ccnc2cc(Cl)ccc12` (stereo not shown) [chloroquine, N′-(7-chloroquinolin-4-yl)-N,N-diethyl-pentane-1,4-diamine], the “apoptosis (elevation of cleaved PARP Asp214)” value in assay [1] (as early as 48 hours post treatment) is reported as “induced apoptosis”. The figures for the “autophagy associated signal pathway proteins (Atg5, AKT, ERK, mTOR, IRS-1, p38 etc.) by RPMA” value in assay [1] (listed as CQ), in assay [1] (listed as Chloroquine) and in assay [1] (setting [5]) were “suppressed”, “markedly inhibited” and “suppressed autophagy associated proteins”, respectively. The “histology of invading DCIS cells within the organoid” value in assay [2] (2 days post chloroquine treatment, 50 μM) is “Degeneration of the invading DCIS cells”. Besides, the “histology of intraductal epithelial cells / remaining adherent cells” value in assay [2] was “Cellular swelling and apparent apoptotic death”; in assay [2] (listed as CQ), “lysosomal engorgement”. Further, the “histology of DCIS organoid cultured with chloroquine long term” value in assay [2] (cultured in the presence of chloroquine for 6 months, 50 μM) is recorded as “complete absence of cellular outgrowths”. Besides, the “spheroid and 3-D structure formation (in words)” value with human DCIS spheroids is listed as “zero for the majority of explants”; in the assay on human DCIS spheroids (listed as CQ), “virtually abolished”; with human DCIS spheroids (setting [5]) it was “completely suppressed”. The “explants without any spheroids following chloroquine treatment” value with human DCIS spheroids (case 09-148, 14 explants) is 12 out of 14. Besides, in the assay on human DCIS spheroids (case 09-301, n=3, prior to treatment 20.5±7.8), the “spheroids observed after treatment” value was “no spheroids observed”. Moreover, the “inhibition of spheroid outgrowth, CQ in combination with tamoxifen” value with human DCIS spheroids (cultured DCIS cells, combination with anti-estrogen compound (tamoxifen)) is “pronounced effect”. Further, the “ex vivo invasion of autologous stroma” value in assay [3] is “suppressed ex vivo invasion”. Besides, the “spheroid integrity and LysoTracker Red distribution” value in assay [4] was “Dissociation of the spheroid, and diffuse accumulation of LysoTracker Red”.
